The source of these data is US11279687B2, “Compounds and compositions for the inhibition of NAMPT” (Valo Health, Inc., priority 2010, dated 2022).

One test deals with NAMPT (Homo sapiens (Human), UniProt P43490). As to the kind of experiment: NAMPT biochemical inhibition assay (NMN quantified by mass spectrometry). Conditions: NAMPT biochemical inhibition; read-out: Biochem IC50.
The next test relates to A2780 cells. As to the kind of experiment: In-vitro cell proliferation assay (SRB), A2780 cells.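 Further: viable cell number read as SRB absorbance, background from media-only wells subtracted, IC50 interpolated from percent inhibition at two bracketing compound concentrations.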 The format is cell-based. Conditions: A2780 cells, 72 hours, SRB, read-out: A2780 IC50.

Where two headings read alike, the source gives them in different places.

Sequence of NAMPT (P43490 whole entry): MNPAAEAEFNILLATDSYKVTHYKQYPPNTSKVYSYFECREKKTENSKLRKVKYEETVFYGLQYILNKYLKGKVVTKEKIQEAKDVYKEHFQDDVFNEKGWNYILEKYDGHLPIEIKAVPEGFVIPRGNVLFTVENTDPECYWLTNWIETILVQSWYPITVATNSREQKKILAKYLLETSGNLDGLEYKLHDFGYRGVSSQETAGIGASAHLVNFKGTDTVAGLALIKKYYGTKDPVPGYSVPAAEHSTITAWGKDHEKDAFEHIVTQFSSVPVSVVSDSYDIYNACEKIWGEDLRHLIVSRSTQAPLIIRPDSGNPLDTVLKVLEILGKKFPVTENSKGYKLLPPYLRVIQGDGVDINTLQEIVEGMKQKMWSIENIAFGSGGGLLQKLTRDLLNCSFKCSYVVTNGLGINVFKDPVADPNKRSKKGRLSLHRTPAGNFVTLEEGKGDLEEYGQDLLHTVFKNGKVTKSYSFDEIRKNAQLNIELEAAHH

Usually IC50 stands for the concentration that gives 50% inhibition. As to `O=C(NCc1cccnc1)Nc1ccc(S(=O)(=O)c2ccc(-n3cccn3)cc2F)cc1` [3-(4-{[2-fluoro-4-(1H-pyrazol-1-yl)benzene]sulfonyl}phenyl)-1-(pyridin-3-ylmethyl)urea], the IC50 on NAMPT was found to be 1 nM; in the test with A2780 cells (Homo sapiens, A2780, 72 h), 14 nM.
On to `O=C(NCc1cccnc1)Nc1ccc(S(=O)(=O)N2CCC(N3CCCCC3)CC2)cc1` [1-{4-[4-(piperidin-1-yl)piperidine-1-sulfonyl]phenyl}-3-(pyridin-3-ylmethyl)urea], for which the IC50 at NAMPT was 7 nM; in the test on A2780 cells (Homo sapiens, A2780, 72 h) it was 13 nM.
In the same order, the values of `O=C(NCc1cccnc1)Nc1ccc(S(=O)(=O)c2ccc(C(F)(F)F)nc2)cc1` [1-(pyridin-3-ylmethyl)-3-{4-[6-(trifluoromethyl)pyridine-3-sulfonyl]phenyl}urea] are 27.9 nM and 1000 to 10000 nM.
The like results for `CC(=O)c1ccc(NS(=O)(=O)c2ccc(NC(=O)NCc3cccnc3)cc2)cc1` [3-{4-[(4-acetylphenyl)sulfanoyl]phenyl}-1-(pyridin-3-ylmethyl)urea] were, in that order, 14.4 nM and 1000 to 10000 nM.
Take `COc1ccc(C)c(NS(=O)(=O)c2ccc(NC(=O)NCc3cccnc3)cc2)c1` [3-{4-[(5-methoxy-2-methylphenyl)sulfamoyl]phenyl}-1-(pyridin-3-ylmethyl)urea]: the IC50 on NAMPT stood at 2 nM; in the test with A2780 cells (Homo sapiens, A2780, 72 h) it was 79 nM.
In the same order, the values of `O=C(NCc1ccn2ccnc2c1)c1ccc(S(=O)(=O)c2ccccc2)cc1` [4-(benzenesulfonyl)-N-{imidazo[1,2-a]pyridin-7-ylmethyl}benzamide] are 30.8 nM and 25.9 nM.
With `COc1ccc(Cl)cc1N1CCN(S(=O)(=O)c2ccc(NC(=O)NCc3cccnc3)cc2)CC1` [3-{4-[4-(5-chloro-2-methoxyphenyl)piperazine-1-sulfonyl]phenyl}-1-(pyridin-3-ylmethyl)urea], the IC50 was found to be 2 nM on NAMPT and 50 nM in the test with A2780 cells (Homo sapiens, A2780, 72 h).
The like results for `O=C(NCc1cccnc1)Nc1ccc(S(=O)(=O)c2cccc3c2OCO3)cc1` [1-[4-(2H-1,3-benzodioxole-4-sulfonyl)phenyl]-3-(pyridin-3-ylmethyl)urea] were, in that order, 4.3 nM and 100 to 1000 nM.
`O=C(NCc1cccnc1)Nc1ccc(S(=O)(=O)N2CCN(CC(=O)N3CCCC3)CC2)cc1` [1-(4-{4-[2-oxo-2-(pyrrolidin-1-yl)ethyl]piperazine-1-sulfonyl}phenyl)-3-(pyridin-3-ylmethyl)urea]: the IC50 on NAMPT was 4 nM; in the test with A2780 cells (Homo sapiens, A2780, 72 h), 99 nM.
In the same order, the values of `CCN(CC)C1CCN(S(=O)(=O)c2ccc(NC(=O)NCc3cccnc3)cc2)CC1` [3-{4-[4-(diethylamino)piperidine-1-sulfonyl]phenyl}-1-(pyridin-3-ylmethyl)urea] are 5 nM and 14 nM.
Regarding `O=C(NCc1cccnc1)Nc1ccc(S(=O)(=O)c2cc(F)cc(OCC(F)(F)F)c2)cc1` [3-(4-{[3-fluoro-5-(2,2,2-trifluoroethoxy)benzene]sulfonyl]phenyl)-1-(pyridin-3-ylmethyl)urea], the IC50 on NAMPT was found to be 1.1 nM; in the test with A2780 cells, 29.7 nM.
Turning to `O=C(NCc1cccnc1)Nc1ccc(S(=O)(=O)c2ccc(C(F)(F)F)c(Cl)c2)cc1` [3-(4-{[3-chloro-4-(trifluoromethyl)benzene]sulfonyl}phenyl)-1-(pyridin-3-ylmethyl)urea], the IC50 at NAMPT was 4 nM; in the test with A2780 cells (Homo sapiens, A2780, 72 h) it was 100 to 1000 nM.
On to `COCc1cccc(S(=O)(=O)c2ccc(NC(=O)NCc3cccnc3)cc2)c1` [3-(4-{[3-(methoxymethyl)benzene]sulfonyl}phenyl)-1-(pyridin-3-ylmethyl)urea], for which the IC50 at NAMPT was 3.3 nM; in the test with A2780 cells (Homo sapiens, A2780, 72 h) it was 93.3 nM.
The like results for `O=C(NCc1cccnc1)Nc1ccc(S(=O)(=O)N2CCC(CN3CCCC3=O)CC2)cc1` [1-(4-{4-[(2-oxopyrrolidin-1-yl)methyl]piperidine-1-sulfonyl}phenyl)-3-(pyridin-3-ylmethyl)urea] were, in that order, 2 nM and 78 nM.
In the same order, the values of `CC(C)(C)c1ccc(NS(=O)(=O)c2ccc(NC(=O)NCc3cccnc3)cc2)c(Cl)c1` [3-{4-[(4-tert-butyl-2-chlorophenyl)sulfamoyl]phenyl}-1-(pyridin-3-ylmethyl)urea] are 1.4 nM and 97 nM.
The like results for `O=C(NCc1ccc(Cl)nc1)Nc1ccc(S(=O)(=O)N2CCCCC2)cc1` [3-[(6-chloropyridin-3-yl)methyl]-1-[4-(piperidine-1-sulfonyl)phenyl]urea] were, in that order, 8 nM and more than 30000 nM.
On to `CCOc1ccc(S(=O)(=O)c2ccc(NC(=O)NCc3cccnc3)cc2)cc1` [3-{4-[(4-ethoxybenzene)sulfonyl]phenyl}-1-(pyridin-3-ylmethyl)urea], for which the IC50 at NAMPT is 2.2 nM; with A2780 cells (Homo sapiens, A2780, 72 h), 100 to 1000 nM.
In the same order, the values of `Cc1ccccc1N1CCN(S(=O)(=O)c2ccc(NC(=O)NCc3cccnc3)cc2)CC1` [3-{4-[4-(2-methylphenyl)piperazine-1-sulfonyl]phenyl}-1-(pyridin-3-ylmethyl)urea] are 6 nM and 106 nM.
In the same order, the values of `CC(C)NC(=O)CN1CCN(S(=O)(=O)c2ccc(NC(=O)NCc3cccnc3)cc2)CC1` [N-(propan-2-yl)-2-{4-[(4-{[(pyridin-3-ylmethyl)carbamoyl]amino}benzene)sulfonyl]piperazin-1-yl}acetamide] are 3 nM and 37 nM.
In the same order, the values of `O=C(NCc1cccnc1)Nc1ccc(S(=O)(=O)N2CCCC3CCCCC32)cc1` (stereo not drawn) [1-[4-(decahydroquinoline-1-sulfonyl)phenyl]-3-(pyridin-3-ylmethyl)urea] are 11 nM and 14 nM.
For `COc1ncc(S(=O)(=O)c2ccc(NC(=O)NCc3cccnc3)cc2)cn1` [3-[4-(2-methoxypyrimidine-5-sulfonyl)phenyl]-1-(pyridin-3-ylmethyl)urea], the IC50 on NAMPT was 8.7 nM; with A2780 cells (Homo sapiens, A2780, 72 h) it was 100 to 1000 nM.
As to `O=C(NCc1cccnc1)Nc1ccc(S(=O)(=O)Nc2ccccc2N2CCOCC2)cc1` [1-(4-{[2-(morpholin-4-yl)phenyl]sulfamoyl}phenyl)-3-(pyridin-3-ylmethyl)urea], the IC50 turned out to be 5 nM at NAMPT and 11 nM in the test with A2780 cells (Homo sapiens, A2780, 72 h).
In the same order, the values of `O=C(NCc1cccnc1)Nc1ccc(S(=O)(=O)c2ccc3c(c2)OCCO3)cc1` [1-[4-(2,3-dihydro-1,4-benzodioxine-6-sulfonyl)phenyl]-3-(pyridin-3-ylmethyl)urea] are 1.1 nM and 100 to 1000 nM.
In the same order, the values of `O=C(NCc1ccc2nccn2c1)c1ccc(S(=O)(=O)c2ccccc2Cl)cc1` [4-[(2-chlorobenzene)sulfonyl]-N-{imidazo[1,2-a]pyridin-6-ylmethyl}benzamide] are 19.5 nM and 3.92 nM.
With `O=C(NCc1cccnc1)Nc1ccc(S(=O)(=O)Nc2ccc(Cl)cc2OC(F)(F)F)cc1` [3-(4-{[4-chloro-2-(trifluoromethoxy)phenyl]sulfamoyl[phenyl)-1-(pyridin-3-ylmethyl)urea], the IC50 worked out at 6 nM at NAMPT and 113 nM in the test with A2780 cells.
As for `O=C(NCc1cccnc1)Nc1ccc(S(=O)(=O)c2cccc(-c3ccccc3)c2)cc1` [1-{4-[(3-phenylbenzene)sulfonyl]phenyl}-3-(pyridin-3-ylmethyl)urea], the IC50 at NAMPT is 6.8 nM; in the test on A2780 cells (Homo sapiens, A2780, 72 h), 100 to 1000 nM.
In the same order, the values of `O=C(NCc1cccnc1)Nc1ccc(S(=O)(=O)c2ccc(Cl)cc2F)cc1` [3-{4-[(4-chloro-2-fluorobenzene)sulfonyl]phenyl}-1-(pyridin-3-ylmethyl)urea] are 2 nM and 415 nM.
The like results for `CN(C)C(=O)c1ccccc1NS(=O)(=O)c1ccc(NC(=O)NCc2cccnc2)cc1` [N,N-dimethyl-2-[(4-{[(pyridin-3-ylmethyl)carbamoyl]amino}benzene)sulfonamido]benzamide] were, in that order, 16 nM and 55 nM.
For `O=C(NCc1ccc[n+]([O-])c1)Nc1ccc(S(=O)(=O)c2ccc(Cl)cc2)cc1` [3-{[({4-[(4-chlorobenzene)sulfonyl]phenyl}carbamoyl)amino]methyl}pyridin-1-ium-1-olate], the IC50 at NAMPT is 728 nM; in the test on A2780 cells it was more than 30000 nM.
In the case of `CCCOc1ccc(S(=O)(=O)c2ccc(NC(=O)NCc3cccnc3)cc2)cc1Cl` [3-{4-[(3-chloro-4-propoxybenzene)sulfonyl]phenyl}-1-(pyridin-3-ylmethyl)urea], the IC50 at NAMPT is 4.6 nM; with A2780 cells (Homo sapiens, A2780, 72 h), 100 to 1000 nM.
`CCN(CC)C(=O)c1cc(F)cc(S(=O)(=O)c2ccc(NC(=O)NCc3cccnc3)cc2)c1` [N,N-diethyl-3-fluoro-5-[(4-{[(pyridin-3-ylmethyl)carbamoyl]amino[benzene)sulfonyl]benzamide]: the IC50 at NAMPT worked out at 1.2 nM; in the test on A2780 cells, 1.5 nM.
For `COc1ccc(F)cc1S(=O)(=O)c1ccc(NC(=O)NCc2cccnc2)cc1` [3-{4-[(5-fluoro-2-methoxybenzene)sulfonyl]phenyl}-1-(pyridin-3-ylmethyl)urea], the half-maximal inhibitory concentration (IC50) turned out to be 2 nM at NAMPT and 4 nM in the test with A2780 cells (Homo sapiens, A2780, 72 h).
In the case of `O=C(NCc1cccnc1)Nc1ccc(S(=O)(=O)c2cccc(Cl)c2)cc1` [3-{4-[(3-chlorobenzene)sulfonyl]phenyl}-1-(pyridin-3-ylmethyl)urea], the IC50 on NAMPT came to 3 nM; in the test with A2780 cells (Homo sapiens, A2780, 72 h), 518 nM.
The like results for `O=C(NCc1cccnc1)Nc1ccc(S(=O)(=O)c2ccc(C(F)(F)F)cc2)cc1` [1-(pyridin-3-ylmethyl)-3-(4-{[4-(trifluoromethyl)benzene]sulfonyl}phenyl)urea] were, in that order, 9 nM and 604 nM.
On to `CC(C)CNC(=O)c1cccc(S(=O)(=O)c2ccc(NC(=O)NCc3cccnc3)cc2)c1` [N-(2-methylpropyl)-3-[(4-{[(pyridin-3-ylmethyl)carbamoyl]amino[benzene)sulfonyl]benzamide], for which the IC50 is 9.7 nM at NAMPT and 100 to 1000 nM in the test with A2780 cells.
As for `O=C(NCc1cccnc1)Nc1ccc(S(=O)(=O)c2ccccc2C(F)(F)F)cc1` [1-(pyridin-3-ylmethyl)-3-(4-{[2-(trifluoromethyl)benzene]sulfonyl}phenyl)urea], the IC50 at NAMPT is 3 nM; in the test on A2780 cells (Homo sapiens, A2780, 72 h) it was 569 nM.
